{"source": "patent US5539123A", "about": "“Low molecular weight thiocarbamates as inhibitors of elastase, uses and method of synthesis” (University of Kentucky Research Foundation, priority 1994, dated 1996)", "system": "Zymosan Induced Inflammation", "experiment": "Zymosan-induced paw inflammation (arthritis) in rats, percent volume increase of the paw", "type": "in vivo, rat", "details": "for % Oedema Volume change: 3.6 × 10^-4 mg/g IP vs control; for % Volume Increase, Mean of 3 experiments / % Volume Increase: 3.6 × 10^-4 mg/g IP", "description": "A reversible arthritic condition was induced according to known procedures for the Zymosan-induced arthritis (See J. P. Tarayre, A. Delphon, et al., Pharmacological studies in zymosan inflammation in rats and mice, I: Zymosan-induced paw edema in rat and mice, Pharmacological Research, 21, (#4) 375-384 (1989); Takuo Sato, Yoshitaka Ino, et al., Inhibitory effects of a novel synthetic protease inhibitor (FUT-175), on the paw edema in rats and Zymosan-induced compliment activation in vitro, Japan J. Pharmacol., 42,587-589 (1986); David K. Gremmell, et al., Comparative effects of drugs on four paw edema models on the rat, Agents and Actions 4, (#1) 107-116 (1979); and D. C. Keystone, et al., Zymosan-induced arthritis: A model of chronic proliferative arthritis following activation of the alternative pathway of compliment, Arthritis and Rheumatism 20 (#7) 1396-1401 (1977)).\nEach rat (250 g each) was kept in a restraining cage with light ether anesthesia until the administration of the drug. The procedure involves the intramuscular (IM) injection of 1 mg of Zymosan in 50 μL (microliters) of normal saline in the pad of a hind paw of the rat. Swelling becomes evident within 20 minutes and reaches a maximum within 1.5 hours. The swelling disappears after 24 hours. In the Figures the reversal to normal size of the paw within 24 hours is not shown. The degree of swelling is measured by a water displacement method and the percent (%) of volume increase of the paw is plotted against time (see J. P. Tarayre, A. Delphon, et al., Pharmacological studies in zymosan inflammation in rats and mice. I: Zymosan-induced paw edema in rat and mice, Pharmaco-logical Research, 21, (#4) 375-384 (1989); Takuo Sato, Yoshitaka Ino, et al., Inhibitory effects of a novel synthetic protease inhibitor (FUT-175), on the paw edema in rats and Zymosan-induced compliment activation in vitro, Japan J. Pharmacol., 42, 587-589 (1986)).\nControl was conducted by injecting I.P. 100 μl of propylene glycol (the vehicle) 15 min. prior to Zymosan administration. […] Data from tables 1 and 1a are plotted in FIGS. 1 and 1a respectively.\nIn the experimental procedure the drug [PC-16, […] (FIG. 2) or 90 μg/rat (FIG. 3)] is dissolved in 100 μL of propylene glycol and is injected IP to the rats. Fifteen minutes later the Zymosan (1mg/50 μL of normal saline) solution is injected IM into the paw of the rats. The degree of swelling is subsequently measured at various time intervals for a period of 24 hours and is reported up to 4 hours."}
{"smiles": "CCCCNC(=O)Sc1nnnn1-c1ccccc1", "note": "[PC-16]", "values": [{"measurement": "percent volume increase of rat paw", "setting": "36 μg/kg IP 15 min prior to Zymosan, 1.5 hour, control 60%", "result": 20, "unit": "%"}, {"measurement": "swelling of rat paw", "setting": "360 μg/kg IP 15 min prior to Zymosan", "result": "practically no swelling"}, {"measurement": "% Oedema Volume change", "setting": "10 min", "result": -85.0, "unit": "%"}, {"measurement": "% Oedema Volume change", "setting": "20 min", "result": -94.4, "unit": "%"}, {"measurement": "% Oedema Volume change", "setting": "30 min", "result": -94.2, "unit": "%"}, {"measurement": "% Oedema Volume change", "setting": "40 min", "result": -94.7, "unit": "%"}, {"measurement": "% Oedema Volume change", "setting": "50 min", "result": -95.1, "unit": "%"}, {"measurement": "% Oedema Volume change", "setting": "60 min", "result": -94.9, "unit": "%"}, {"measurement": "% Oedema Volume change", "setting": "65 min", "result": -94.8, "unit": "%"}, {"measurement": "% Oedema Volume change", "setting": "70 min", "result": -94.6, "unit": "%"}, {"measurement": "% Oedema Volume change", "setting": "80 min", "result": -93.8, "unit": "%"}, {"measurement": "% Oedema Volume change", "setting": "95 min", "result": -94.0, "unit": "%"}, {"measurement": "% Oedema Volume change", "setting": "100 min", "result": -94.3, "unit": "%"}, {"measurement": "% Oedema Volume change", "setting": "105 min", "result": -94.1, "unit": "%"}, {"measurement": "% Oedema Volume change", "setting": "115 min", "result": -93.7, "unit": "%"}, {"measurement": "% Oedema Volume change", "setting": "120 min", "result": -93.3, "unit": "%"}, {"measurement": "% Oedema Volume change", "setting": "130 min", "result": -94.1, "unit": "%"}, {"measurement": "% Oedema Volume change", "setting": "135 min", "result": -93.2, "unit": "%"}, {"measurement": "% Oedema Volume change", "setting": "145 min", "result": -92.6, "unit": "%"}, {"measurement": "% Oedema Volume change", "setting": "150 min", "result": -91.9, "unit": "%"}, {"measurement": "% Oedema Volume change", "setting": "160 min", "result": -91.6, "unit": "%"}, {"measurement": "% Oedema Volume change", "setting": "175 min", "result": -91.5, "unit": "%"}, {"measurement": "% Oedema Volume change", "setting": "190 min", "result": -91.9, "unit": "%"}, {"measurement": "% Oedema Volume change", "setting": "200 min", "result": -91.7, "unit": "%"}, {"measurement": "% Oedema Volume change", "setting": "205 min", "result": -91.3, "unit": "%"}, {"measurement": "% Oedema Volume change", "setting": "210 min", "result": -90.7, "unit": "%"}, {"measurement": "% Oedema Volume change", "setting": "220 min", "result": -90.6, "unit": "%"}, {"measurement": "% Oedema Volume change", "setting": "225 min", "result": -89.8, "unit": "%"}, {"measurement": "% Oedema Volume change", "setting": "240 min", "result": -90.9, "unit": "%"}, {"measurement": "% Volume Increase, Mean of 3 experiments", "setting": "0 min", "result": 0.00, "unit": "%"}, {"measurement": "% Volume Increase, Mean of 3 experiments", "setting": "5 min", "result": 0.89, "unit": "%"}, {"measurement": "% Volume Increase, Mean of 3 experiments", "setting": "10 min", "result": 1.43, "unit": "%"}, {"measurement": "% Volume Increase, Mean of 3 experiments", "setting": "15 min", "result": 1.43, "unit": "%"}, {"measurement": "% Volume Increase, Mean of 3 experiments", "setting": "20 min", "result": 1.61, "unit": "%"}, {"measurement": "% Volume Increase, Mean of 3 experiments", "setting": "30 min", "result": 2.19, "unit": "%"}, {"measurement": "% Volume Increase, Mean of 3 experiments", "setting": "40 min", "result": 2.37, "unit": "%"}, {"measurement": "% Volume Increase, Mean of 3 experiments", "setting": "45 min", "result": 2.00, "unit": "%"}, {"measurement": "% Volume Increase, Mean of 3 experiments", "setting": "50 min", "result": 2.37, "unit": "%"}, {"measurement": "% Volume Increase, Mean of 3 experiments", "setting": "55 min", "result": 2.92, "unit": "%"}, {"measurement": "% Volume Increase, Mean of 3 experiments", "setting": "60 min", "result": 2.92, "unit": "%"}, {"measurement": "% Volume Increase", "setting": "65 min", "result": 2.92, "unit": "%"}, {"measurement": "% Volume Increase", "setting": "70 min", "result": 3.13, "unit": "%"}, {"measurement": "% Volume Increase, Mean of 3 experiments", "setting": "75 min", "result": 3.34, "unit": "%"}, {"measurement": "% Volume Increase, Mean of 3 experiments", "setting": "80 min", "result": 3.52, "unit": "%"}, {"measurement": "% Volume Increase, Mean of 3 experiments", "setting": "85 min", "result": 3.52, "unit": "%"}, {"measurement": "% Volume Increase, Mean of 3 experiments", "setting": "90 min", "result": 3.52, "unit": "%"}, {"measurement": "% Volume Increase", "setting": "95 min", "result": 3.52, "unit": "%"}, {"measurement": "% Volume Increase, Mean of 3 experiments", "setting": "100 min", "result": 3.33, "unit": "%"}, {"measurement": "% Volume Increase", "setting": "105 min", "result": 3.49, "unit": "%"}, {"measurement": "% Volume Increase, Mean of 3 experiments", "setting": "110 min", "result": 3.65, "unit": "%"}, {"measurement": "% Volume Increase", "setting": "115 min", "result": 3.78, "unit": "%"}, {"measurement": "% Volume Increase, Mean of 3 experiments", "setting": "120 min", "result": 3.90, "unit": "%"}, {"measurement": "% Volume Increase, Mean of 3 experiments", "setting": "125 min", "result": 3.71, "unit": "%"}, {"measurement": "% Volume Increase, Mean of 3 experiments", "setting": "130 min", "result": 3.35, "unit": "%"}, {"measurement": "% Volume Increase", "setting": "135 min", "result": 3.53, "unit": "%"}, {"measurement": "% Volume Increase, Mean of 3 experiments", "setting": "145 min", "result": 3.71, "unit": "%"}, {"measurement": "% Volume Increase, Mean of 3 experiments", "setting": "150 min", "result": 3.90, "unit": "%"}, {"measurement": "% Volume Increase, Mean of 3 experiments", "setting": "160 min", "result": 3.90, "unit": "%"}, {"measurement": "% Volume Increase, Mean of 3 experiments", "setting": "170 min", "result": 3.52, "unit": "%"}, {"measurement": "% Volume Increase", "setting": "175 min", "result": 3.70, "unit": "%"}, {"measurement": "% Volume Increase, Mean of 3 experiments", "setting": "180 min", "result": 3.88, "unit": "%"}, {"measurement": "% Volume Increase, Mean of 3 experiments", "setting": "190 min", "result": 3.34, "unit": "%"}, {"measurement": "% Volume Increase", "setting": "200 min", "result": 3.41, "unit": "%"}]}
